Measurements reported in the NIST ThermoML archive (doi:10.1021/je0495583).
± gives the expanded uncertainty stated by the source.

assay: refractive index (Na D-line) (dimensionless); settings: 298.15 K; 101.33 kPa; Liquid; Standard Abbe refractometry

First: CCC(C)(C)OC [2-methoxy-2-methylbutane]
Second: COC(C)(C)C [2-methoxy-2-methylpropane]
The refractive index of the first is higher: 1.3867 ± 0.0008 for the first, 1.366 ± 0.0008 for the second.

Compared with C1CCCCC1 [cyclohexane], CCCCCC [hexane] is lower in refractive index: 1.4236 ± 0.0008 for the first, 1.3722 ± 0.0007 for the second.

In the case of Cc1ccccc1 [toluene], the refractive index is reported as 1.4941 ± 0.0008.

assay: not given; settings: 293.15 K; 101.33 kPa; Liquid; Pycnometric method

First: CCC(C)(C)OC [2-methoxy-2-methylbutane]
Second: COC(C)(C)C [2-methoxy-2-methylpropane]
The mass density of the first is higher: 770.6 ± 0.8 kg/m3 for the first, 740.5 ± 0.8 kg/m3 for the second.

First: C1CCCCC1 [cyclohexane]
Second: CCCCCC [hexane]
The mass density of the first is higher: 778.4 ± 0.8 kg/m3 for the first, 659.4 ± 0.6 kg/m3 for the second.

For Cc1ccccc1 [toluene], the mass density was 866.2 ± 0.9 kg/m3.
